Experimental data: BigSolDB 2.1

Nc1cccc2c1CN(C1CCC(=O)NC1=O)C2=O (stereo not given)
solubility (mole fraction)
Conditions | 293.15 K | 298.15 K | 303.15 K | 308.15 K | 313.15 K | 318.15 K | 323.15 K | 328.15 K | 333.15 K
in acetonitrile | 0.000539 | 0.000549 | 0.000561 | 0.000573 | 0.000588 | 0.000603 | 0.000618 | 0.000634 | 0.000652
in ethanol | 0.000164 | 0.000183 | 0.000209 | 0.000238 | 0.00027 | 0.000309 | 0.000357 | 0.000404 | 0.00046
in ethyl acetate | 0.000127 | 0.000144 | 0.000164 | 0.000184 | 0.00021 | 0.000239 | 0.000277 | 0.000319 | 0.000367
in isopropanol | 6.37e-05 | 7.79e-05 | 9.5e-05 | 0.000116 | 0.000141 | 0.000168 | 0.000195 | 0.000231 | 0.000271
in methanol | 0.000252 | 0.000269 | 0.000288 | 0.000309 | 0.000332 | 0.000359 | 0.000394 | 0.000434 | 0.00048
